Test system: cell cultures (cancer cells)
Experiment: Cytotoxic effects in cell cultures, QFA, calicheamicin and huA33 conjugates
Details: added to cell cultures

calicheamicin
cytotoxic effects in vitro: weak cytotoxic effects

Source: patent publication US6652853B2, “Method for treating cancer using A33 specific antibodies and chemotherapeutic agents” (Ludwig Institute for Cancer Research, priority 2001, dated 2003)
